Test results as given in patent US20240000724A1, “Compositions and Methods for Treatment or Prevention of Oral Mucositis” (PATHWAYS BIOSCIENCE, LLC, priority 2015, published 2024).
Entries after “also recorded” stand apart in the source; their conditions may differ.

Assays:
[1] = test system: Nrf2 signaling pathway (HepG2 cells); assay: Short exposure time course of Nrf2 activation in HepG2 Nrf2-driven promoter luciferase reporter cells; format: cell-based, human; conditions: 5 minutes exposure, washed off, read 24 hours later; compared with 1 or 2 hours exposure
Method: As an example of the short time course of PB201 exposure needed to activate the Nrf2 signaling pathway, HepG2 cells stably transfected with a Nrf2-driven promoter, luciferase reporter construct were treated with PB201 for 5 minutes, 1 hour, or 2 hours, then the PB201 was removed and washed off the cells, then 24 hours later the luciferase levels were measured by chemiluminescence to assay for Nrf2 activation.

[2] = test system: radiation-induced oral mucositis (cheek pouch ulceration); assay: Radiation-induced oral mucositis in hamster cheek pouch; format: in vivo, Syrian Golden Hamsters; conditions: 40 Gy day 0; topical cheek pouch 1 to 10 μg PB201 3×/day days 0 to 28; scored days 6 to 28
Method: In this example, a single dose of radiation (40 Gy) was given on day 0 to the isolated cheek pouch and PB201 treatment was given by topical cheek pouch administration of 1 to 10 μg PB201 given three times daily from days 0 to 28 as 0.2 mL of 5 μg/mL given 3×/day or 0.2 mL of 50 μg/mL given 3×/day, and oral mucositis was determined as cheek pouch ulceration, scored every 2 days from days 6 to 28. Mucositis was scored visually by comparison to a validated photographic scale, ranging from 0 (normal) to 5 (severe ulceration). In descriptive terms, this scale is defined as follows.
A score of 1-2 is considered to represent a mild stage of the disease, whereas a score of 3-5 is considered to indicate moderate to severe mucositis.

oral mucositis = assay: Oral mucositis in a mammal receiving radiation treatment or chemotherapy, topical oral administration; format: in vivo; conditions: topical within oral cavity daily, vs untreated or placebo
Method: A formulation of PB201 was administered topically within the oral cavity daily to a mammal receiving radiation treatment or chemotherapy that can cause oral mucositis as a side effect. PB201 administration decreased the frequency and/or severity of the oral mucositis as compared to untreated or placebo treated subjects.

[3] = test system: Nrf2 (HepG2-ARE promoter/reporter cells); assay: HepG2-ARE promoter/reporter cells, Nrf2 activation (chemiluminescent signal, RLU); format: cell-based, human; conditions: for Nrf2 activation level: 4.2 ug/mL, unstimulated baseline 7182 RLU; for Nrf2 activation (chemiluminescent signal, RLU): HepG2-ARE cells
Method: (§1) In this example, approaches were used to increase the aqueous distribution of the otherwise relatively insoluble 1,3-diphenyl-1,3-propanedione (DBM) by adding 2-hydroxypropyl beta-cyclodextrin (HPBCD) at a molar ratio (DBM:HPBCD) of 1:3. […] To verify its presence in the aqueous solutions, the samples were tested for activity of PB201 using HepG2-ARE promoter/reporter cells, which are responsive to PB201 and other Nrf2-activators by promoting the expression of luciferase.
Furthermore, the Nrf2 activation by the 1,3-diphenyl-1,3-propanedione, with or without solubility enhancing agents such as HPBCD, is temporary, not permanent, and can be repeated; for example the Nrf2 activation by 4.2 ug/mL 1,3-diphenyl-1,3-propanedione decreases from its level at 17 hours (72,949 RLU) to 24 hours (47,121 RLU) after stimulation, and is nearly back to its baseline, unstimulated levels (7182 RLU) by 48 hours (11,659 RLU). Similarly, other types of agents can be utilized to increase aqueous levels of 1,3-diphenyl-1,3-propanedione including, but not limited to, surfactants, liposomes, amphiphiles, emulsifiers, and complexing agents to make solutions or suspensions.

[4] = test system: Interleukin-8 (IL-8) release, primary human lung epithelial cells; assay: IL-8 release from primary human lung epithelial cells stimulated with cigarette smoke extract; format: cell-based; conditions: primary human lung epithelial cells exposed to CSE for 7 days, vs untreated CSE-stimulated cells
Excerpt: As an example of the cell protective mechanisms induced by PB201 treatment, release of the proinflammatory cytokine Interleukin-8 (IL-8) was attenuated in primary human lung epithelial cells treated with PB201 compared to untreated cells when both were stimulated with cigarette smoke extract (FIG. 9).

[5] = Aqueous solubility / visual dissolution in PBS with and without HPBCD; format: physicochemical; conditions: for Aqueous solubility alone: water or aqueous solutions, no solubility enhancer
Method: as §1

SMILES: O=C(CC(=O)c1ccccc1)c1ccccc1 [PB201, 1,3-diphenyl-1,3-propanedione]
- Nrf2 response (luciferase chemiluminescence) [1]: strong Nrf2 response similar to 1 or 2 hours of exposure
- Protection against oral mucositis (cheek pouch ulceration score 0-5) [2]: protected against the oral mucositis
- Frequency and/or severity of oral mucositis (oral mucositis): decreased
- Nrf2 activation level ([3]; 17 hours after stimulation): 72,949 RLU
- Nrf2 activation level ([3]; 48 hours after stimulation): 11,659 RLU
- Nrf2 activation (chemiluminescent signal, RLU) ([3]; PB201 in HPBCD/PBS): activated
- Nrf2 activation (chemiluminescent signal, RLU) ([3]; PB201 in PBS alone): not by PB201 in PBS alone
- IL-8 release [4]: significantly decreased; also recorded: attenuated
- Visual dissolution ([5]; 5 mg in 1 mL PBS with 93 mg HPBCD (3:1 mole ratio)): visually dissolved
- Change of solubility in aqueous solution by 2-hydroxypropyl beta-cyclodextrin ([5]; HPBCD added, DBM:HPBCD 1:3): greatly increased
- Aqueous solubility alone [5]: nearly insoluble
- Aqueous solubility alone ([5]; listed as 1,3-diphenyl-1,3-propanedione): low aqueous solubility
